Laboratory results as given in paper PMC6119295 (International Journal of Neuropsychopharmacology, 2018).

Assays:
[1] = ref White et al., 2015, cited from earlier work
C57BL6 mice [2] = conditions: mouse, in vivo
C57BL6 mice [3] = assay: Morphine-induced analgesia in a hot plate assay; format: in vivo, mouse; conditions: dose used in prolactin/rotarod experiments; data not shown
rodents = conditions: ref Valenza et al., 2017; cited from earlier work
[4] = up to 10 mg/kg; ref Erli et al. 2017; cited from earlier work
mice = conditions: cited from earlier work
C57BL6 mice [5] = conditions: mouse, in vivo; remark: listed apart in the source
dopamine D2 receptor = conditions: ref Spetea et al., 2012; cited from earlier work
DOR = DOR (Homo sapiens, UniProt P41143); assay: Opioid receptor binding, DOR
DOR, sequence (P41143 whole entry): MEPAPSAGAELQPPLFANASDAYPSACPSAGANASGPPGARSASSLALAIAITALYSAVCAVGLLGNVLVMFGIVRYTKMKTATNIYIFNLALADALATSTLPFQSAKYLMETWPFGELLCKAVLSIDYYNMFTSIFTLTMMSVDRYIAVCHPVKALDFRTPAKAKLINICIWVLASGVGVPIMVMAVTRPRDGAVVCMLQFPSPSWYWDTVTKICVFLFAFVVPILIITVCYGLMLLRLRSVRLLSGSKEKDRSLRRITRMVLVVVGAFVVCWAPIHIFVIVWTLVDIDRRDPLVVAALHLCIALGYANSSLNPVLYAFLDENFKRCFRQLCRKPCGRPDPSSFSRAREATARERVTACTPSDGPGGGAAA

MOR = MOR (Rattus norvegicus, UniProt P33535); assay: Opioid receptor binding, MOR
MOR, sequence (P33535 whole entry): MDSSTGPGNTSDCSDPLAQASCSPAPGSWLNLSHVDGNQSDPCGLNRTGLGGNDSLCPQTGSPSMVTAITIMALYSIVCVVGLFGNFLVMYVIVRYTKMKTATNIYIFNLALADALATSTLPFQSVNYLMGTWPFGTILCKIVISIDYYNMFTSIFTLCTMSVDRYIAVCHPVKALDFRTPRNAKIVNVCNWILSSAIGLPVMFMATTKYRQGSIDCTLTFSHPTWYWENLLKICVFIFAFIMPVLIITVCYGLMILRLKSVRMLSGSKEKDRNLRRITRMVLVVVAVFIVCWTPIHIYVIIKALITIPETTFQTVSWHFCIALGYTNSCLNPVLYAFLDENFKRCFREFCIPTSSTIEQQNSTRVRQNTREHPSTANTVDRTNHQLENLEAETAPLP

caudate putamen = conditions: 3.2 mg/kg, ref Zhang et al., 2005, cited from earlier work

COC(=O)[C@@H]1C[C@H](OC(=O)CSC#N)C(=O)[C@H]2[C@@]1(C)CC[C@H]1C(=O)O[C@H](c3ccoc3)C[C@]21C [RB-64]
Effect on the rotarod [1]: did not have an effect on the rotarod

NC(=O)c1ccc(Oc2ccc(CN3CCC[C@H]3c3cccc(F)c3)cc2)c(F)c1 [LY2444296, (S)-3-fluoro-4-(4-((2-(3-fluorophenyl)pyrrolidin-1-yl)methyl)phenoxy)benzamide]
Blockade of U50,488-stimulated prolactin release (C57BL6 mice [2]): blocks the effects | Effect of antagonist alone on serum prolactin (C57BL6 mice [2]): no effect on prolactin | Effect on morphine-induced analgesia in hot plate assay (C57BL6 mice [3]): does not inhibit morphine-induced analgesia | Duration of action (short-acting) (rodents): < 48 h

Oc1cccc(CCN(CCc2ccccc2)CC2CCC2)c1 [MCBPHA, N-methylcyclobutyl-N-phenylethyl-N-3-hydroxyphenylethyl-amine]
Locomotor defects in the rotarod assay [4]: neither of these compounds caused locomotor defects | Effect on serum prolactin after LY2444296 pretreatment (C57BL6 mice [2]): blocked the effect | Potency in peripheral analgesia (acetic acid writhing) (mice; mice, ref Spetea et al., 2012): equally potent as the well-characterized KOR agonist U50,488 | Efficacy in an analgesia assay in mice (mice; ref Spetea et al. 2012, Erli et al. 2017): efficacy | Rotarod incoordination after LY2444296 pretreatment (C57BL6 mice [5]): blocked | Affinity and agonism at the dopamine D2 receptor (dopamine D2 receptor): low affinity and no agonism | Ki (DOR): 3 µM | Ki (MOR): 0.27 µM

COC(=O)[C@@H]1C[C@H](OC(C)=O)C(=O)[C@H]2[C@@]1(C)CC[C@H]1C(=O)O[C@H](c3ccoc3)C[C@]21C [salvinorin A]
Time after injection at which rotarod incoordination begins returning to normal ([1]; 3 mg/kg): ≤ 30 min | Duration of decrease of extracellular dopamine (caudate putamen; after administration): at least 3 hours | Decrease of extracellular dopamine in the caudate putamen (caudate putamen; systemic): over 50%
